Laboratory results reported in US11464770B2, “Anticancer pharmaceutical composition” (NATIONAL CANCER CENTER, priority 2016, dated 2022).
Where two headings read alike, the source gives them in different places.

Tested on: pancreatic cancer cell lines (e.g. MIA PaCa-2)
Experiment: Cell based assay, cell viability (CellTiter-Glo), pancreatic cancer cell lines
Conditions: Homo sapiens
In short: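 Each commercial line was plated and allowed 24 h to settle at constant temperature. Compound exposure ran 72 h at final concentrations spanning 0 to 2 μM. Cell viability was then determined by luminescent ATP detection.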

[1] = pancreatic cancer cell line AsPC-1, 72 hours, read-out: IC50, AsPC-1
[2] = pancreatic cancer cell line BxPC-3, 72 hours, read-out: IC50, BxPC-3
[3] = pancreatic cancer cell line CFPAC-1, 72 hours, read-out: IC50, CFPAC-1
[4] = pancreatic cancer cell line Capan-1, 72 hours, read-out: IC50, Capan-1
[5] = pancreatic cancer cell line Capan-2, 72 hours, read-out: IC50, Capan-2
[6] = pancreatic cancer cell line MIA PaCa-2, 72 hours, read-out: IC50, MIA PaCa-2
[7] = pancreatic cancer cell line PANC-1, 72 hours, read-out: IC50, PANC-1

| IC50 [1] [nM] | IC50 [2] [nM] | IC50 [3] [nM] | IC50 [4] [nM] | IC50 [5] [nM] | IC50 [6] [nM] | IC50 [7] [nM] | Compound |
| --- | --- | --- | --- | --- | --- | --- | --- |
| > 2000 | > 2000 | > 10000 | > 2000 | > 2000 | > 2000 | > 2000 | CC(=O)c1c(S/C=C\C(=O)O)[nH]c2c(Br)ccc(Cl)c2c1=O [Compound 67, (Z)-3-((3-acetyl-8-bromo-5-chloro-4-oxo-1,4-dihydroquinolin-2-yl)thio)acrylic acid] |
| > 2000 | > 2000 | > 10000 | > 2000 | > 2000 | 1120 | > 2000 | CC(=O)c1c([S+]([O-])Cc2ccc(S(F)(F)(F)(F)F)cc2)[nH]c2c(Br)ccc(Cl)c2c1=O (centres unmarked) [Compound 68, 3-acetyl-8-bromo-5-chloro-2-((4-(pentafluoro-16-sulfanyl)benzyl)sulfinyl)quinolin-4(1H)-one] |
| > 2000 | > 2000 | > 10000 | > 2000 | > 2000 | 1370 | > 2000 | CC(=O)c1c([S+]([O-])Cc2ccc(S(F)(F)(F)(F)F)cc2F)[nH]c2c(Br)ccc(Cl)c2c1=O (centres unmarked) [Compound 69, 3-acetyl-8-bromo-5-chloro-2-((2-fluoro-4-(pentafluoro-16-sulfanyl)benzyl)sulfinyl)quinolin-4(1H)-one] |
| > 2000 | > 2000 | > 10000 | > 2000 | > 2000 | 1390 | > 2000 | CC(=O)c1c([S+]([O-])Cc2cccc(S(F)(F)(F)(F)F)c2)[nH]c2c(Br)ccc(Cl)c2c1=O (centres unmarked) [Compound 77, 3-acetyl-8-bromo-5-chloro-2-((3-(pentafluoro--sulfanyl)benzyl)sulfinyl)quinolin-4(1H)-one] |
| > 2000 | > 2000 | > 10000 | > 2000 | > 2000 | > 2000 | > 2000 | CC(=O)c1c([S+]([O-])Cc2ccc(SC(F)(F)F)cc2)[nH]c2c(Cl)ccc(Cl)c2c1=O (centres unmarked) [Compound 79, 3-acetyl-5,8-dichloro-2-((4-((trifluoromethyl)thio)benzyl)sulfinyl)quinolin-4(1H)-one] |
| > 2000 | > 2000 | > 10000 | > 2000 | > 2000 | > 2000 | > 2000 | CC(=O)c1c([S+]([O-])Cc2ccc(S(F)(F)(F)(F)F)cc2)[nH]c2c(F)ccc(F)c2c1=O (centres unmarked) [Compound 80, 3-acetyl-5,8-difluoro-2-((4-(pentafluoro--sulfanyl)benzyl)sulfinyl)quinolin-4(1H)-one] |
| > 2000 | > 2000 | > 10000 | > 2000 | > 2000 | > 2000 | > 2000 | CC(=O)c1c([S+]([O-])Cc2ccc(C(F)(F)F)o2)[nH]c2c(F)ccc(F)c2c1=O (centres unmarked) [Compound 81, 3-acetyl-5,8-difluoro-2-(((5-(trifluoromethyl)furan-2-yl)methyl)sulfinyl)quinolin-4(1H)-one] |
| > 2000 | > 2000 | > 10000 | > 2000 | > 2000 | > 2000 | > 2000 | CC(=O)c1c([S+]([O-])Cc2cc(C)on2)[nH]c2c(F)ccc(F)c2c1=O (centres unmarked) [Compound 82, 3-acetyl-5,8-difluoro-2-(((5-methylisoxazol-3-yl)methyl)sulfinyl)quinolin-4(1H)-one] |
| > 2000 | > 2000 | > 10000 | > 2000 | > 2000 | > 2000 | > 2000 | CC(C)C(=O)c1c([S+]([O-])Cc2ccc(SC(F)(F)F)cc2)[nH]c2c(F)ccc(F)c2c1=O (centres unmarked) [Compound 85, 5,8-difluoro-3-isobutyryl-2-((4-((trifluoromethyl)thio)benzyl)sulfinyl)quinolin-4(1H)-one] |
| > 2000 | > 2000 | > 10000 | > 2000 | > 2000 | > 2000 | > 2000 | O=C(c1ccccc1)c1c([S+]([O-])Cc2ccc(S(F)(F)(F)(F)F)cc2)[nH]c2c(F)ccc(F)c2c1=O (centres unmarked) [Compound 87, 3-benzoyl-5,8-difluoro-2-((4-(pentafluoro--sulfanyl)benzyl)sulfinyl)quinolin-4(1H)-one] |
| > 2000 | > 2000 | > 10000 | > 2000 | > 2000 | > 2000 | > 2000 | Cc1cc(C[S+]([O-])c2[nH]c3c(Cl)ccc(Cl)c3c(=O)c2C(=O)c2ccccc2)no1 (centres unmarked) [Compound 88, 3-benzoyl-5,8-dichloro-2-(((5-methylisoxazol-3-yl)methyl)sulfinyl)quinolin-4(1H)-one] |
| > 2000 | > 2000 | > 10000 | > 2000 | > 2000 | > 2000 | > 2000 | CC(=O)c1c([S+]([O-])CN2C(=O)c3ccccc3C2=O)[nH]c2c(Cl)ccc(Cl)c2c1=O (centres unmarked) [Compound 90, 2-(((3-acetyl-5,8-dichloro-4-oxo-1,4-dihydroquinolin-2-yl)sulfinyl)methyl)isoindoline-1,3-dione] |
| > 2000 | > 2000 | > 10000 | > 2000 | > 2000 | 1420 | > 2000 | COC(=O)c1ccc(C[S+]([O-])c2[nH]c3c(Cl)ccc(Cl)c3c(=O)c2C(C)=O)cc1 (centres unmarked) [Compound 91, methyl 4-(((3-acetyl-5,8-dichloro-4-oxo-1,4-dihydroquinolin-2-yl)sulfinyl)methyl)benzoate] |
| > 2000 | > 2000 | > 10000 | > 2000 | > 2000 | > 2000 | > 2000 | COc1cccc2[nH]c(SCc3ccc(S(F)(F)(F)(F)F)cc3)c(C(C)=O)c(=O)c12 [Compound 92, 3-acetyl-5-methoxy-2-((4-(pentafluoro--sulfanyl)benzyl)thio)quinolin-4(1H)-one] |
| > 2000 | > 2000 | > 10000 | > 2000 | > 2000 | > 2000 | > 2000 | COc1cccc2[nH]c([S+]([O-])Cc3ccc(S(F)(F)(F)(F)F)cc3)c(C(C)=O)c(=O)c12 (centres unmarked) [Compound 93, 3-acetyl-5-methoxy-2-((4-(pentafluoro--sulfanyl)benzyl)sulfinyl)quinolin-4(1H)-one] |
| > 2000 | > 2000 | > 10000 | > 2000 | > 2000 | 1650 | > 2000 | COc1cccc2[nH]c([S+]([O-])Cc3cc(C)on3)c(C(C)=O)c(=O)c12 (centres unmarked) [Compound 94, 3-acetyl-5-methoxy-2-(((5-methylisoxazol-3-yl)methyl)sulfinyl)quinolin-4(1H)-one] |
| > 2000 | > 2000 | > 10000 | > 2000 | > 2000 | 1140 | > 2000 | Cc1cc(C[S+]([O-])c2[nH]c3c(Br)ccc(Cl)c3c(=O)c2C(=O)C2CC2)no1 (centres unmarked) [Compound 96, 8-bromo-5-chloro-3-(cyclopropanecarbonyl)-2-(((5-methylisoxazol-3-yl)methyl)sulfinyl)quinolin-4(1H)-one] |
| 1740 | > 2000 | > 10000 | 1520 | > 2000 | 860 | > 2000 | Cc1cc(C[S+]([O-])c2[nH]c3c(Cl)ccc(Cl)c3c(=O)c2C(=O)C2CC2)no1 (centres unmarked) [Compound 97, 5,8-dichloro-3-(cyclopropanecarbonyl)-2-(((5-methylisoxazol-3-yl)methyl)sulfinyl)quinolin-4(1H)-one] |
| > 2000 | > 2000 | > 10000 | > 2000 | > 2000 | 1270 | > 2000 | CC(=O)c1c([S+]([O-])Cc2ccc(C#N)s2)[nH]c2c(Br)ccc(Cl)c2c1=O (centres unmarked) [Compound 98, 5-(((3-acetyl-8-bromo-5-chloro-4-oxo-1,4-dihydroquinolin-2-yl)sulfinyl)methyl)thiophene-2-carbonitrile] |
| 1490 | > 2000 | > 10000 | 1990 | > 2000 | 720 | > 2000 | CC(=O)c1c([S+]([O-])Cc2ccc(-n3cccn3)nc2)[nH]c2c(Br)ccc(Cl)c2c1=O (centres unmarked) [Compound 99, 2-(((6-(1H-pyrazol-1-yl)pyridin-3-yl)methyl)sulfinyl)-3-acetyl-8-bromo-5-chloroquinolin-4(1H)-one] |
| > 2000 | > 2000 | > 10000 | > 2000 | > 2000 | > 2000 | > 2000 | CC(=O)c1c([S+]([O-])Cc2ccc(N)nc2)[nH]c2c(Br)ccc(Cl)c2c1=O (centres unmarked) [Compound 100, 3-acetyl-2-(((6-aminopyridin-3-yl)methyl)sulfinyl)-8-bromo-5-chloroquinolin-4(1H)-one] |
| > 2000 | > 2000 | > 10000 | > 2000 | > 2000 | 1830 | > 2000 | O=C(c1c([S+]([O-])Cc2ccc(SC(F)(F)F)cc2)[nH]c2c(Br)ccc(Cl)c2c1=O)C1CC1 (centres unmarked) [Compound 101, 8-bromo-5-chloro-3-(cyclopropanecarbonyl)-2-((4-((trifluoromethyl)thio)benzyl)sulfinyl)quinolin-4(1H)-one] |
| 1540 | > 2000 | > 10000 | 1660 | > 2000 | 690 | > 2000 | CC(=O)c1c([S+]([O-])Cc2ccc(C(F)(F)F)nc2C)[nH]c2c(Br)ccc(Cl)c2c1=O (centres unmarked) [Compound 102, 3-acetyl-8-bromo-5-chloro-2-(((2-methyl-6-(trifluoromethyl)pyridin-3-yl)methyl)sulfinyl)quinolin-4(1H)-one] |
| > 2000 | > 2000 | > 10000 | > 2000 | > 2000 | > 2000 | > 2000 | CC(=O)c1c([S+]([O-])Cc2ccc(NS(C)(=O)=O)cc2)[nH]c2c(Br)ccc(Cl)c2c1=O (centres unmarked) [Compound 103, N-(4-(((3-acetyl-8-bromo-5-chloro-4-oxo-1,4-dihydroquinolin-2-yl)sulfinyl)methyl)phenyl)methane-sulfonamide] |
| > 2000 | > 2000 | > 10000 | 1590 | > 2000 | 790 | > 2000 | CC(=O)c1c([S+]([O-])Cc2ccc(Cl)nc2)[nH]c2c(Br)ccc(Cl)c2c1=O (centres unmarked) [Compound 104, 3-acetyl-8-bromo-5-chloro-2-(((6-chloropyridin-3-yl)methyl)sulfinyl)quinolin-4(1H)-one] |
| > 2000 | > 2000 | > 10000 | > 2000 | > 2000 | > 2000 | > 2000 | COCCNc1ccc(C[S+]([O-])c2[nH]c3c(Br)ccc(Cl)c3c(=O)c2C(C)=O)cn1 (centres unmarked) [Compound 105, 3-acetyl-8-bromo-5-chloro-2-(((6-((2-methoxyethyl)amino)pyridin-3-yl)methyl)sulfinyl)quinolin-4(1H)-one] |
